This passage reports Activity results from ChEMBL document CHEMBL5506074, “Discovery and Optimization of Tetrahydroisoquinoline Derivatives To Enhance Lysosome Biogenesis as Preclinical Candidates for the Treatment of Alzheimer's Disease” (J Med Chem, 2024).

What all share (type): functional
Assay [1] can be described thus: Induction of TFEB nuclear translocation in human HeLa cells expressing EGFP at 30 uM measured at 6 hrs by fluorescence microscopic analysis.
Assay [2] is described as follows: Induction of TFEB nuclear translocation in human HeLa cells expressing EGFP at 10 uM measured at 6 hrs by fluorescence microscopic analysis.
Assay [3] is described as follows: Induction of TFEB nuclear translocation in human HeLa cells expressing EGFP at 10 uM measured at 3 hrs by fluorescence microscopic analysis.
Assay [4] can be described thus: Induction of TFEB nuclear translocation in human HeLa cells expressing EGFP at 30 uM measured at 3 hrs by fluorescence microscopic analysis.

Consider `c1ccc(COc2ccc3[nH]cc(CCC4c5cc6c(cc5CCN4CC4CCOCC4)OCO6)c3c2)cc1` (centres undefined), for which the Activity in assay [1] came to 88%; in assay [2], 30%; in assay [3], 12%; in assay [4], 75%.
`c1ccc2c(CCC3c4cc5c(cc4CCN3CCC3CCOCC3)OCO5)c[nH]c2c1` (centres undefined): the Activity in assay [1] is 80%; in assay [2], 5%; in assay [3], 5%; in assay [4] it was 65%.
Consider `OCn1cc(CCC2c3cc4c(cc3CCN2CC2CCOCC2)OCO4)c2ccccc21` (centres undefined), for which the Activity in assay [1] was 8%; in assay [2], 5%; in assay [3], 5%; in assay [4], 8%.
Consider `CCCN1CCc2cc3c(cc2C1CCc1c[nH]c2ccccc12)OCO3` (centres undefined), for which the Activity in assay [1] worked out at 80%; in assay [2], 12%; in assay [3] it was 11%; in assay [4], 55%.
Regarding `COc1ccc2[nH]cc(CCC3c4cc5c(cc4CCN3CC3CCOCC3)OCO5)c2c1` (centres undefined), the Activity came out at 98% in assay [1], 76% in assay [2], 74% in assay [3] and 88% in assay [4].
As for `Fc1ccc2[nH]cc(CC[C@@H]3c4cc5c(cc4CCN3CC3CCOCC3)OCO5)c2c1`, the Activity in assay [1] worked out at 82%; in assay [2] it was 33%; in assay [3], 29%; in assay [4] it was 70%.
As to `COc1ccc2[nH]cc(CC[C@H]3c4cc(OC)c(OC)cc4CCN3CC3CCOCC3)c2c1`, the Activity in assay [1] came out at 91%; in assay [2], 61%; in assay [3], 44%; in assay [4] it was 85%.
On the same counts, the results for `Cc1ccc2[nH]cc(CCC3NCCc4cc5c(cc43)OCO5)c2c1` (centres undefined) are 60%, 10%, 10% and 45%.
As to `Cn1cc(CCC2c3cc4c(cc3CCN2CC2CCOCC2)OCO4)c2ccccc21` (centres undefined), the Activity in assay [1] was 26%; in assay [2], 5%; in assay [3], 5%; in assay [4], 26%.
Consider `Cc1ccc2[nH]cc(CCC3c4cc5c(cc4CCN3CC3CCOCC3)OCO5)c2c1` (centres undefined), for which the Activity is listed as 85% in assay [1], 30% in assay [2], 20% in assay [3] and 83% in assay [4].
On the same counts, the results for `COc1cc2c(cc1OC)C(CCc1c[nH]c3ccc(Br)cc13)N(CC1CCOCC1)CC2` (centres undefined) are 94%, 63%, 53% and 89%.
In the case of `CC(=O)N1CCc2cc3c(cc2C1CCc1c[nH]c2ccccc12)OCO3` (centres undefined), the Activity in assay [1] was determined as 10%; in assay [2] it was 7%; in assay [3] it was 6%; in assay [4], 8%.
Take `COc1cc2c(cc1C)C(CCc1c[nH]c3ccccc13)N(CC1CCOCC1)CC2` (centres undefined): the Activity in assay [1] stood at 81%; in assay [2] it was 30%; in assay [3], 18%; in assay [4], 76%.
`Brc1ccc2[nH]cc(CCC3c4cc5c(cc4CCN3CC3CCOCC3)OCO5)c2c1` (centres undefined): the Activity in assay [1] was determined as 95%; in assay [2] it was 30%; in assay [3], 10%; in assay [4] it was 85%.
For `c1cnc2[nH]cc(CCC3c4cc5c(cc4CCN3CC3CCOCC3)OCO5)c2c1` (centres undefined), the Activity in assay [1] came out at 64%; in assay [2], 10%; in assay [3] it was 10%; in assay [4] it was 64%.
As for `COCCN1CCc2cc3c(cc2C1CCc1c[nH]c2ccccc12)OCO3` (centres undefined), the Activity in assay [1] was found to be 80%; in assay [2], 30%; in assay [3], 30%; in assay [4], 70%.
`c1ccc2c(CC[C@H]3NCCc4cc5c(cc43)OCO5)c[nH]c2c1`: the Activity in assay [1] came out at 77%; in assay [2] it was 23%; in assay [3], 18%; in assay [4], 76%.
On to `Fc1ccc2[nH]cc(CCC3NCCc4cc5c(cc43)OCO5)c2c1` (centres undefined), for which the Activity was 92% in assay [1], 54% in assay [2], 36% in assay [3] and 88% in assay [4].
Take `c1ccc2c(CCC3c4cc5c(cc4CCN3CC3CCOCC3)OCO5)c[nH]c2c1` (centres undefined): the Activity in assay [1] turned out to be 93%; in assay [2] it was 67%; in assay [3], 47%; in assay [4], 86%.
Turning to `CC(C)CCN1CCc2cc3c(cc2C1CCc1c[nH]c2ccccc12)OCO3` (centres undefined), the Activity in assay [1] was 80%; in assay [2], 20%; in assay [3] it was 20%; in assay [4], 70%.
As for `COc1cc2c(cc1OC)C(CCc1c[nH]c3ccc(C)cc13)N(CC1CCOCC1)CC2` (centres undefined), the Activity is 91% in assay [1], 53% in assay [2], 38% in assay [3] and 92% in assay [4].
In the case of `Fc1ccc2[nH]cc(CC[C@H]3c4cc5c(cc4CCN3CC3CCOCC3)OCO5)c2c1`, the Activity is 98% in assay [1], 60% in assay [2], 56% in assay [3] and 90% in assay [4].
For the molecule `O=CN1CCc2cc3c(cc2C1CCc1c[nH]c2ccccc12)OCO3` (centres undefined), the Activity in assay [1] was found to be 4%; in assay [2], 5%; in assay [3], 6%; in assay [4], 6%.
With `Oc1ccc2[nH]cc(CCC3c4cc5c(cc4CCN3CC3CCOCC3)OCO5)c2c1` (centres undefined), the Activity was found to be 81% in assay [1], 21% in assay [2], 15% in assay [3] and 72% in assay [4].
Take `COc1cc2c(cc1F)C(CCc1c[nH]c3ccccc13)N(CC1CCOCC1)CC2` (centres undefined): the Activity came to 79% in assay [1], 31% in assay [2], 17% in assay [3] and 70% in assay [4].
In the case of `c1ccc2c(c1)ccn2CCC1c2cc3c(cc2CCN1CC1CCOCC1)OCO3` (centres undefined), the Activity was 5% in assay [1], 5% in assay [2], 5% in assay [3] and 8% in assay [4].
For the molecule `CCC(=O)N1CCN(c2ccc(-n3c(=O)ccc4cnc5ccc(-c6cnc7ccccc7c6)cc5c43)cc2C(F)(F)F)CC1` [TORIN1], the Activity in assay [1], in assay [2], in assay [3] and in assay [4] was 100% each time.
On to `CCN1CCc2cc3c(cc2C1CCc1c[nH]c2ccccc12)OCO3` (centres undefined), for which the Activity is 84% in assay [1], 22% in assay [2], 9% in assay [3] and 65% in assay [4].
With `c1ccc2c(CCC3c4cc5c(cc4CCN3Cc3cncnc3)OCO5)c[nH]c2c1` (centres undefined), the Activity is given as 20% in assay [1], 10% in assay [2], 10% in assay [3] and 20% in assay [4].
As to `c1ccc2c(CC[C@@H]3NCCc4cc5c(cc43)OCO5)c[nH]c2c1`, the Activity in assay [1] worked out at 96%; in assay [2], 34%; in assay [3] it was 30%; in assay [4], 89%.
As for `c1ccc2[nH]c(CCC3c4cc5c(cc4CCN3CC3CCOCC3)OCO5)cc2c1` (centres undefined), the Activity in assay [1] is 39%; in assay [2] it was 5%; in assay [3], 5%; in assay [4], 39%.
As for `c1ccc(CN2CCc3cc4c(cc3C2CCc2c[nH]c3ccccc23)OCO4)cc1` (centres undefined), the Activity in assay [1], in assay [2], in assay [3] and in assay [4] was 10% each time.
As for `COc1cc2c(cc1OC)C(CCc1c[nH]c3ccc(F)cc13)N(CC1CCOCC1)CC2` (centres undefined), the Activity in assay [1] was 95%; in assay [2], 47%; in assay [3], 22%; in assay [4], 88%.
Turning to `COc1ccc2[nH]cc(CC[C@@H]3c4cc(OC)c(OC)cc4CCN3CC3CCOCC3)c2c1`, the Activity in assay [1] amounted to 80%; in assay [2] it was 37%; in assay [3] it was 23%; in assay [4], 74%.
For the molecule `COc1cc2c(cc1OC)C(CCc1c[nH]c3ccc(Cl)cc13)N(CC1CCOCC1)CC2` (centres undefined), the Activity in assay [1] was 90%; in assay [2], 37%; in assay [3], 27%; in assay [4], 84%.
For `Clc1ccc2[nH]cc(CCC3c4cc5c(cc4CCN3CC3CCOCC3)OCO5)c2c1` (centres undefined), the Activity was found to be 92% in assay [1], 20% in assay [2], 15% in assay [3] and 83% in assay [4].
As to `N#Cc1ccc2[nH]cc(CCC3c4cc5c(cc4CCN3CC3CCOCC3)OCO5)c2c1` (centres undefined), the Activity in assay [1] is 64%; in assay [2] it was 10%; in assay [3] it was 10%; in assay [4], 64%.
As to `c1ccc2c(CCC3c4cc5c(cc4CCN3CC3CCCCC3)OCO5)c[nH]c2c1` (centres undefined), the Activity in assay [1] amounted to 42%; in assay [2], 8%; in assay [3], 7%; in assay [4], 11%.
Take `c1ccc2c(CCC3c4cc5c(cc4CCN3CC3CCOCC3)OCO5)csc2c1` (centres undefined): the Activity in assay [1] was determined as 20%; in assay [2], 5%; in assay [3], 5%; in assay [4] it was 15%.
On to `CC(C)CN1CCc2cc3c(cc2C1CCc1c[nH]c2ccccc12)OCO3` (centres undefined), for which the Activity is 82% in assay [1], 20% in assay [2], 20% in assay [3] and 74% in assay [4].
Turning to `CCOc1cc2c(cc1OC)CCN(CC1CCOCC1)C2CCc1c[nH]c2ccccc12` (centres undefined), the Activity in assay [1] is 82%; in assay [2] it was 28%; in assay [3] it was 17%; in assay [4], 75%.
